According to paper PMC10122656, “Siglec-6 mediates the uptake of extracellular vesicles through a noncanonical glycolipid binding pocket” (Nature Communications, 2023):
“And” between values parts separate entries of the source, which are not always exact repeats. Identical values can stand only once.

What was measured:
Siglec-1-Fc R116A = assay: Ganglioside ELISA; assay type: binding, human; details: Figure 2c, replicates
Method: (§1) Siglec-Fc constructs designed by Rodrigues et al.[30] were used in this work. Siglec-Fc constructs were expressed using WT CHO cells in cell culture media as described above with 1% HEPES. Cells incubated as described above for one-week post confluency. The supernatant was harvested and stored at 4 °C.
The purification was heavily inspired by Rodrigues et al.[30]. The purification of the Siglec-Fcs from supernatant began with Ni^2+ affinity chromatography using an AKTA FPLC equipped with a HisTrap Excel column (GE). The column was equilibrated with fifteen column volumes (CVs) of equilibrium buffer (500 mM NaCl, 20 mM NaPO4H2, pH 7.4). The Siglec-Fc containing supernatant was then loaded in its entirety onto the column. The column was then washed with fifteen CVs of wash buffer (500 mM NaCl, 30 mM imidazole, 20 mM NaPO4H2, pH 7.4). The Siglec-Fc was then eluted in 20 in 1 mL fractions with twenty CVs of elution buffer (500 mM NaCl, 500 mM imidazole, 20 mM NaPO4H2, pH 7.4). […] A Strep-Tactin column (IBA life sciences) was washed with fifteen CVs of buffer W. The Siglec-Fc-buffer W solution was then loaded in its entirety onto the column. […] Fractions containing Siglec-Fc were pooled and dialyzed against PBS to remove any d-Desthiobiotin. After dialysis, Siglec-Fcs were concentrated using an ultra-centrifugal device (30 kDa MWCO) and aliquoted into 5 µg aliquots, and frozen. The Siglec-Fcs were then lyophilized overnight, and the lyophilized Siglec-Fcs were stored at −20 °C.
Our ELISA approach was carried out similarly to previous work by Rapoport[12] and Yamakawa[44]. Ganglioside ethanol solutions (10 µM) were prepared and then transferred in 50 µL increments to a 96-well microplate. The ethanol was removed by drying the plates overnight at room temperature. The plates were then washed with PBS, dried, and then blocked with 5% (m/V) BSA PBS for 1 h. The plates were then washed with PBS and then 2 µg/mL Siglec-Fc precomplexed to Strep-Tactin (2 Siglec-Fc:1 Strep-Tactin monomer) horse radish peroxidase was added to the microplate. The complex was incubated with the plate at room temperature for 2 h. The unbound complexes were then removed by washing in PBS and the plate was developed with Sera care TMB solution. The amount of binding was then quantified by using the background (microplate well with no ligand) subtracted absorbance at 450 nm using a Molecular Devices SpectraMAX ® iD5.

R122A Siglec-6-Fc = molecular target: T1, R122A Siglec-6-Fc (Homo sapiens, UniProt O43699, R122A); assay: Liposome over lectin assay (LOLA); assay type: binding; details: Siglec-6 R (arginine mutant); replicates
T1 construct: the Siglecs as Fc chimeras; made in house; host or cells: WT CHO cells
T1 sequence (O43699 27-347 R122A limits assumed): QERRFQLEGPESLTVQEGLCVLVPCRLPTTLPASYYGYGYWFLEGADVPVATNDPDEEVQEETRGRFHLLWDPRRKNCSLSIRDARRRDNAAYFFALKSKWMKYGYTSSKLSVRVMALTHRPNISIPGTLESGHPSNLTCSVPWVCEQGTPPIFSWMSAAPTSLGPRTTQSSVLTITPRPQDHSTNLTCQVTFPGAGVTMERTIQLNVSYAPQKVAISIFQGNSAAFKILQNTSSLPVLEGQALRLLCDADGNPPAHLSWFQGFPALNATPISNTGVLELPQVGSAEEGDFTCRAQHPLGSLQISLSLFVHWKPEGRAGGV
Method: as §1
(§2) The purification was heavily inspired by Rodrigues et al.[30]. The purification of the Siglec-Fcs from supernatant began with Ni^2+ affinity chromatography using an AKTA FPLC equipped with a HisTrap Excel column (GE). The column was equilibrated with fifteen column volumes (CVs) of equilibrium buffer (500 mM NaCl, 20 mM NaPO4H2, pH 7.4). The Siglec-Fc containing supernatant was then loaded in its entirety onto the column. The column was then washed with fifteen CVs of wash buffer (500 mM NaCl, 30 mM imidazole, 20 mM NaPO4H2, pH 7.4). The Siglec-Fc was then eluted in 20 in 1 mL fractions with twenty CVs of elution buffer (500 mM NaCl, 500 mM imidazole, 20 mM NaPO4H2, pH 7.4). Fractions containing Siglec-Fc were compiled and then prepared for the next stage of purification by diluting the fractions 1:4 with buffer W (100 mM Tris–HCl, 150 mM NaCl, 1 mM EDTA, pH 8.0). A Strep-Tactin column (IBA life sciences) was washed with fifteen CVs of buffer W. The Siglec-Fc-buffer W solution was then loaded in its entirety onto the column. The bound Siglec-Fc was then washed with fifteen CVs of buffer W. Siglec-Fc was eluted from the column with 15 column volumes of buffer E (100 mM Tris–HCl, 150 mM NaCl, 1 mM EDTA, 10 mM d-Desthiobiotin, pH 8.0). Fractions containing Siglec-Fc were pooled and dialyzed against PBS to remove any d-Desthiobiotin. After dialysis, Siglec-Fcs were concentrated using an ultra-centrifugal device (30 kDa MWCO) and aliquoted into 5 µg aliquots, and frozen. The Siglec-Fcs were then lyophilized overnight, and the lyophilized Siglec-Fcs were stored at −20 °C.
(§3) Siglec-Fc in PBS was adsorbed to a 96-well flat-bottom fluorescent microplate by adding 1 µg/well and incubating the plate at 4 °C overnight. The plate was then washed with PBS followed by blocking with 5% (m/V) BSA in PBS for 1 h at room temperature. The plate was again washed with PBS and 100 µM liposome in PBS was added to each well. The plate was then incubated at 37 °C for 30 min followed by washing with PBS. PBS was then added to the plate and the fluorescence intensity (λex 640 nm, λem 680 nm) of each well was measured using a Molecular Devices SpectraMAX ® iD5.

Siglec-1-Fc WT = Siglec-1-Fc WT (Homo sapiens, UniProt Q9BZZ2); assay: Liposome over lectin assay (LOLA); assay type: binding; details: Siglec-1 WT; replicates
Siglec-1-Fc WT, sequence (Q9BZZ2 20-136 limits assumed): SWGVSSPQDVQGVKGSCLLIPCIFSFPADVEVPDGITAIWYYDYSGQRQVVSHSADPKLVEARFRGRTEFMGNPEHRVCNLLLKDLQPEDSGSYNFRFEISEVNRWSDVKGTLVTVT
Method: as §1, §2, §3

Siglec-6-Fc WT = molecular target: T2, Siglec-6-Fc WT (Homo sapiens, UniProt O43699); assay: Liposome over lectin assay (LOLA); assay type: binding; details: Siglec-6 WT; replicates
T2 construct: the Siglecs as Fc chimeras; made in house; host or cells: WT CHO cells
T2 sequence (O43699 27-347 limits assumed): as the sequence (O43699 27-347 R122A limits assumed) above, with A96R counted along it
Method: as §1, §2, §3

Siglec-7-Fc R124A = molecular target: T3, Siglec-7-Fc R124A (Homo sapiens, UniProt Q9Y286, R124A); assay: Liposome over lectin assay (LOLA); assay type: binding; details: Siglec-7 R (arginine mutant); replicates
T3 construct: the Siglecs as Fc chimeras; made in house; host or cells: WT CHO cells
T3 sequence (Q9Y286 19-353 R124A limits assumed): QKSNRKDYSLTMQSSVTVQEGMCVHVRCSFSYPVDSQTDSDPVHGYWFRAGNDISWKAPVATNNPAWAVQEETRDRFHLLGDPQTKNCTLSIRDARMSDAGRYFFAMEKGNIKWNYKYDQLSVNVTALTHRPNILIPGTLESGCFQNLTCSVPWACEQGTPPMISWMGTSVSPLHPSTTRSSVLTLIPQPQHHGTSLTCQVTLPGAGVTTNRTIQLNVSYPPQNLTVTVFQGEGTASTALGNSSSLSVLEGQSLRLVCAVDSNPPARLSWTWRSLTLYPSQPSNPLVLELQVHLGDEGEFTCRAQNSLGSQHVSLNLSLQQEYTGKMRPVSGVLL
Method: as §1, §2, §3

Siglec-7-Fc WT = molecular target: T4, Siglec-7-Fc WT (Homo sapiens, UniProt Q9Y286); assay: Liposome over lectin assay (LOLA); assay type: binding; details: Siglec-7 WT; replicates
T4 construct: the Siglecs as Fc chimeras; made in house; host or cells: WT CHO cells
T4 sequence (Q9Y286 19-353 limits assumed): as the sequence (Q9Y286 19-353 R124A limits assumed) above, with A106R counted along it
Method: as §1, §2, §3

Siglec-1-Fc R116A, sequence (Q9BZZ2 20-136 R116A limits assumed): as the sequence (Q9BZZ2 20-136 limits assumed) above, with R97A counted along it

Row | Substance | ganglioside ELISA signal, Siglec-1 R (Siglec-1-Fc R116A) | LOLA: GLL binding, fluorescence plate reader (Fig. 2e) (R122A Siglec-6-Fc) | LOLA: GLL binding, fluorescence plate reader (Fig. 2e) (Siglec-1-Fc WT) | LOLA: GLL binding, fluorescence plate reader (Fig. 2e) (Siglec-6-Fc WT) | LOLA: GLL binding, fluorescence plate reader (Fig. 2e) (Siglec-7-Fc R124A) | LOLA: GLL binding, fluorescence plate reader (Fig. 2e) (Siglec-7-Fc WT)
1 | GD1a | 0.06 and 0.08 and 0.11 and 0.09 | 37.34 and 37.32 and 38.57 and 41.15 and 44.1 | 13.17 and 9.49 and 10.37 and 14.33 and 18.05 | 28.61 and 32.95 and 30.67 and 25.13 and 23.55 | 6.47 and 10.42 and 11.8 and 5.25 and 10.13 | 7.1 and 6.68 and 9.94 and 10.73 and 13.26
2 | GM4 | 0.18 and 0.21 and 0.26 and 0.27 |  |  |  |  | 
3 | GM3 | 0.33 and 0.4 and 0.43 and 0.46 |  |  |  |  | 
4 | GQ1b | -0.01 and -0.02 and 0 | 25.13 and 35.2 and 35.69 and 28.06 and 30.69 | 10.86 and 11.87 and 9.36 and 23.13 and 11.98 | 19.03 and 15.89 and 21.18 and 22.9 and 35.39 | 6.14 and 4.56 and 5.96 and 16.03 and 20.32 | 15.3 and 24.18 and 22.56 and 26.04 and 30.34
5 | GT1b | 0.02 and 0.04 and 0.03 |  |  |  |  | 
6 | GD1b | 0.11 and 0.13 and 0.17 |  |  |  |  | 
7 | GM1 | 0.07 and 0.08 and 0.1 and 0.14 | 17.43 and 40.61 and 36.66 and 31.85 and 32.16 | 5.66 and 12.97 and 11.61 and 4.8 and 8.91 | 18.34 and 20.42 and 17.75 and 12.02 and 17.78 | 2.83 and 4.02 and 10.31 and 3.55 and 12.57 | 6.49 and 5.21 and 2.94 and 8.58 and 5.66
8 | GM2 | 0.07 and 0.09 and 0.15 and 0.11 |  |  |  |  | 
9 | GD3 | 0.22 and 0.18 and 0.24 and 0.28 | 36.87 and 29.95 and 29.9 and 34.98 and 32.24 | 9.49 and 6.85 and 10.11 and 9.9 and 7.11 | 33.08 and 30.39 and 25.39 and 23.72 and 21.46 | -0.64 and 18.58 and 8.22 and 12.6 and 8.15 | 10.57 and 10.04 and 18 and 18.66 and 20.44
